# Measured values published in patent US8785459B2, “Quinazoline compounds as kinase inhibitors” (Development Center for Biotechnology, priority 2011, dated 2014).
# Molecular target: B-Raf (Homo sapiens (Human), UniProt P15056)
# Assay: Raf kinase assay (B-Raf), [33P] incorporation into MEK1(K97R)
# Assay type: biochemical
# Conditions: 1.0 μM compound; read-out: B-Raf inhibition at 1.0 μM
# Method: A. Raf Kinase Assays (B-Raf, B-raf (V600E), and C-Raf)
# Inhibition of kinase activity by test compound disclosed herein was estimated by quantifying the amount of [^33P] incorporation of substrate in the presence of test compound. Standard assay conditions were 2 ng of recombinant C-Raf or 5 ng of recombinant B-Raf or 5 ng of recombinant B-Raf (V600E) kinase (Upstate Biotechnology) with 500 ng MEK1(K97R) in assay buffer {8 μM ATP, 0.5 μCi [^33P]ATP (specific activity 3000 Ci/mmol, PerkinElmer), 50 mM Tris/HCl (pH7.5), and 1 mM EGTA, 1 mM Na3VO4, 1% 2-mercaptoethanol, 0.1% Brij 35, and 0.2 mg/ml BSA} at a final volume of 25 μL. Reactions were incubated at 30° C. for 30 min and stopped by adding 3% phosphoric acid, harvested onto a 96-well GF/B UniFilter (PerkinElmer) using a unifilter harvester (PerkinElmer), and counted with a TopCount microplate scintillation counter (PerkinElmer). The IC50 values of inhibitors were determined after carrying out assays at 3-fold serially diluted concentrations of each compound in duplication. The results were analyzed using linear regression software (GraphPad Prism 4; GraphPad Software Inc.). Inhibition of B-Raf, B-raf (V600E), and C-Raf kinases by various compounds listed in Table 1 are summarized and shown in Table 3 below. IC50 value is defined as the concentration of the test compound which achieves a half-maximal inhibition of the kinase activity.
# B-Raf, sequence (P15056 whole entry): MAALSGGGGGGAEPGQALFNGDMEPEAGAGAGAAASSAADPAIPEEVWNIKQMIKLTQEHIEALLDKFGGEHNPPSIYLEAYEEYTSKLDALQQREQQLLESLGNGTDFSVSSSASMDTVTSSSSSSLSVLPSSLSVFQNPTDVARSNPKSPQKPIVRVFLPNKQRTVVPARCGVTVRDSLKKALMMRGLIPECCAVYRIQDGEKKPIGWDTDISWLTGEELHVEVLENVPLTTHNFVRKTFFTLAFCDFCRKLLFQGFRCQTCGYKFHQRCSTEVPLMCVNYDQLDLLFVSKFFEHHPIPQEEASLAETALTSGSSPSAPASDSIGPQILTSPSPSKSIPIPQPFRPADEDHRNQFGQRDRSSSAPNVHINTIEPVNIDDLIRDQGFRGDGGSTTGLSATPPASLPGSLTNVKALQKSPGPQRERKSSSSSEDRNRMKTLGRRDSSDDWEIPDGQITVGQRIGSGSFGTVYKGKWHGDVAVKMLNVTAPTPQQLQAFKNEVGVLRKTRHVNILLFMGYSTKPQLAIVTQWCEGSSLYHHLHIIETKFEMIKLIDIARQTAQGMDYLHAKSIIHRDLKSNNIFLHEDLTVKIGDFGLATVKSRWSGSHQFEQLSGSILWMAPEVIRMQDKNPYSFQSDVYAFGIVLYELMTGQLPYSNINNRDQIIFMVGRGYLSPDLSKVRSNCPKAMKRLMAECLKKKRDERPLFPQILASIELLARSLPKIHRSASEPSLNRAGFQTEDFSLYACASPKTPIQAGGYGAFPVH
row,Structure (SMILES),inhibition at 1 µM
1,"COc1ccc(-c2ccc3ncnc(Nc4ccccc4)c3c2)cc1 [Compound 10, 6-(4-methoxyphenyl)-N-phenylquinazolin-4-amine]",15.8%
2,"NC(=O)Nc1ccc(-c2ccc3ncnc(Nc4ccccc4)c3c2)cc1 [Compound 11, 1-(4-(4-(phenylamino)quinazolin-6-yl)phenyl)urea]",19.9%
3,"CCNC(=O)Nc1ccc(-c2ccc3ncnc(Nc4ccccc4)c3c2)cc1 [Compound 12, 1-ethyl-3-(4-(4-(phenylamino)quinazolin-6-yl)phenyl)urea]",18.2%
4,"COc1cc(-c2ccc3ncnc(Nc4ccc(OC)c(OC)c4)c3c2)ccc1O [Compound 13, 4-(4-(3,4-dimethoxyphenylamino)quinazolin-6-yl)-2-methoxyphenol]",7.7%
5,"CCS(=O)(=O)Nc1ccc(-c2ccc3ncnc(Nc4cccc(NS(=O)(=O)CC)c4)c3c2)cc1 [Compound 26, N-(3-(6-(4-(ethylsulfonamido)phenyl)quinazolin-4-ylamino)phenyl)ethanesulfonamide]",45.7%
6,"O=S(=O)(Nc1ccc(-c2ccc3ncnc(Nc4ccccc4)c3c2)cc1)c1ccccc1 [Compound 28, N-(4-(4-(phenylamino)quinazolin-6-yl)phenyl)benzenesulfonamide]",30.5%
7,"COc1cc(-c2cc3c(Nc4ccccc4)ncnc3cc2OC)ccc1O [Compound 30, 2-methoxy-4-(7-methoxy-4-(phenylamino)quinazolin-6-yl)phenol]",10%
8,"COc1cc(-c2ccc3ncnc(Nc4cccc(C(=O)O)c4)c3c2)ccc1O [Compound 32, 3-(6-(4-hydroxy-3-methoxyphenyl)quinazolin-4-ylamino)benzoic acid]",34.7%
9,"COc1cc(-c2ccc3ncnc(Nc4ccc5cc[nH]c5c4)c3c2)ccc1O [Compound 40, 4-(4-(1H-indol-6-ylamino)quinazolin-6-yl)-2-methoxyphenol]",32.2%
10,"COc1ccc(Nc2ncnc3cc(OC)c(-c4ccc(O)c(OC)c4)cc23)cc1O [Compound 42, 4-(4-(3-hydroxy-4-methoxyphenylamino)-7-methoxyquinazolin-6-yl)-2-methoxyphenol]",20.4%
11,"COc1cc(-c2ccc3ncnc(Nc4ccc(C(N)=O)cc4)c3c2)ccc1O [Compound 47, 4-(6-(4-hydroxy-3-methoxyphenyl)quinazolin-4-ylamino)benzamide]",37.8%
12,"COc1ccc(C(=O)O)c(Nc2ncnc3ccc(-c4ccc(O)c(OC)c4)cc23)c1 [Compound 48, 2-(6-(4-hydroxy-3-methoxyphenyl)quinazolin-4-ylamino)-4-methoxybenzoic acid]",30.6%
13,"COc1cc(-c2ccc3ncnc(Nc4ccccc4C(=O)O)c3c2)ccc1O [Compound 50, 2-(6-(4-hydroxy-3-methoxyphenyl)quinazolin-4-ylamino)benzoic acid]",15.6%
14,"COc1cc(-c2ccc3ncnc(Nc4cc(O)ccc4OC)c3c2)ccc1O [Compound 55, 4-(4-(5-hydroxy-2-methoxyphenylamino)quinazolin-6-yl)-2-methoxyphenol]",38.1%
15,"COc1cc(-c2ccc3ncnc(Nc4ccc(C(=O)O)cc4)c3c2)ccc1O [Compound 57, 4-(6-(4-hydroxy-3-methoxyphenyl)quinazolin-4-ylamino)benzoic acid]",4.8%
16,"COc1cc(-c2ccc3ncnc(Nc4cccc(NS(=O)(=O)C(F)(F)F)c4)c3c2)ccc1O [Compound 65, 1,1,1-trifluoro-N-(3-(6-(4-hydroxy-3-methoxyphenyl)quinazolin-4-ylamino)phenyl)methanesulfonamide]",40.4%

# Same assay, conditions: read-out: B-Raf inhibition at 1.0 μM
row,Structure (SMILES),inhibition at 1 µM
1,"COc1cc(-c2ccc3ncnc(Nc4ccccc4)c3c2)ccc1OC(=O)Nc1ccccc1 [Compound 7, 2-methoxy-4-(4-(phenylamino)quinazolin-6-yl)phenyl phenylcarbamate]",23.5%
2,"CCNC(=O)Oc1ccc(-c2ccc3ncnc(Nc4ccccc4)c3c2)cc1OC [Compound 9, 2-methoxy-4-(4-(phenylamino)quinazolin-6-yl)phenyl ethylcarbamate]",13.8%
